Results: patent US9284310B2, “Inhibitors of cytomegalovirus” (Boehringer Ingelheim International GmbH, priority 2012, dated 2016)

Tests used:
HCMV AD169 virus [1] = assay: HCMV AD169 qPCR 96-Well Assay (Example C); type: cell-based; conditions: Human betaherpesvirus 5, AD169, MRC5, 72 h; qPCR of viral DNA, MRC-5 cells, 3 days
Description: The hCMV quantitative PCR (qPCR) assay evaluates the ability of a compound to inhibit, directly or indirectly, the replication of hCMV viral DNA during the first 72 h following the infection. Compounds that inhibit either entry or the hCMV polymerase are active in this assay. Compounds are tested in the qPCR assay in 96-well plates, using a 9-point dose-response with 8 compounds for each 96-well plate. The assay was adapted from the method described by Schnepf et al., Rapid determination of antiviral drug susceptibility of human cytomegalovirus by real-time PCR, Antiviral Research 81 (2009) 64-67.
Final Concentrations: • 10 mM Tris-HCl pH8.0 • 50 mM KCl • 2 mM MgCl2 • 0.45% Tween20 • 0.45% Nonidet P40
Serial dilutions of the DMSO stock compound solution are performed using DMSO in columns 2-10. DMSO alone is present in columns 1 and 11. Column 12 remains empty. Diluted compounds are further diluted with DMEM 5% FBS cell culture medium.
To perform the assay, 25 μL of inhibitor dilutions freshly prepared is added to the assay plate containing 50 μL of MRC-5 cells plated the day before (30000 cells per well). In a 9 point dose-response, column 1 contains mock infected cells and serves at negative control, with the appropriate concentration of DMSO, columns 2 to 10 contain compound dilutions and column 11 contains infected cells, with the appropriate concentration of DMSO and serves as the positive control. Column 12 serves for the standard curve in the qPCR process. Twenty-five μL of virus diluted in DMEM 5% FBS medium (to infect at MOI=0.05) is added to columns 2-11 and only D-MEM 5% FBS medium to uninfected control (column 1) for a final DMSO concentration of 0.6%. Incubate plates at 37° C. in 5% CO2 incubator for 3 days. Whole cell lysates are then obtained by adding 100 μL of Cell lysis buffer to each well including freshly added Proteinase K at a ratio of 1:5 (i.e. 200 μL Proteinase K:1000 μL Cell Lysis buffer) and incubating the assay plate at 56° C. for 1 h. Plates are centrifuged at 1300 rpm for 2 minutes to remove any condensation before proceeding with the qPCR.
The cell lysate is carefully pipetted up and down to mix well and diluted 1:40 in H2O to give a final dilution of 1:80 relative to the 100 μL of lysis buffer that Is added to the cells. 5 μL of diluted lysate is used for the qPCR reaction. An incubation of 5 minutes at 95° C. in a PCR machine is required to inactivate the Proteinase K. The cell lysates can be stored at −20° C. or used to perform qPCR immediately.
A 81 bp fragment of US17 gene from AD169 is amplified by PCR using primers qHCMV7 and qHCMV8. The PCR product is cloned into pCR4 TOPO vector (Invitrogen) and a clone harboring the insert is selected. A mitochondrial DNA is also added to normalize the HCMV copy number. Serial dilutions of the US17 plasmid and mitochondrial DNA are performed in heat-inactivated lysis buffer at the same dilution as the cell lysates (1:80). Usually, a standard curve ranging from 10E6 to 10E2 copies (per well) is suitable.
A typical qPCR reaction consists of the following:
A qPCR cycle consists of an initial denaturation of DNA and activation of the Taq enzyme at 95° C. for 10 min followed by 45 cycles of 15 seconds at 95° C. and 1 min at 60° C. Fluorescence is measured at each cycle, following the elongation step at 60° C. The reaction, data acquisition and analysis are performed using AppliedBiosystems 7500 Real time PCR system or other suitable real-time PCR system.

[2] = tested on: HCMV AD169-Bac-Luc2 US2-US6 clone #26 virus; assay: HCMV AD169-Bac Luciferase Assay (Example B); type: cell-based, Human Cytomegalovirus; conditions: Human betaherpesvirus 5, AD169, MRC5, 72 h, read-out: EC50 Example B
Description: This assay format is a luciferase reporter-based assay that determines the ability of compounds to inhibit the infection by detecting a luciferase signal decrease following the addition of BIGlo substrate (preparation indicated below) directly in the culture media. Mono-oxygenation of luciferin is catalyzed by luciferase in the presence of Mg2+, ATP and molecular oxygen. The generation of oxyluciferin is a luminescent reaction that can be detected with the proper platereader. Human Cytomegalovirus AD169-Bac is obtained from Dr. Thomas Shenk at Princeton University (reference paper Yu et al. 2002—J. Virol. 76 (5):2316-2328, herein incorpoarated by reference) and modified by recombineering to introduce a humanized firefly luciferase gene (Luc2) at the US2-US6 position in the HCMV genome. The virus is expanded in MRC-5 cells.
(§1) Serial dilutions of the DMSO stock compound solution are performed using DMSO in columns 2-11 and 14-23. DMSO alone is present in columns 1, 12, 13 and 24. Four μL of the DMSO serial dilutions is obtained and diluted using […] of D-MEM 5% FBS culture medium to obtain 4% DMSO (7×).
To perform the assay, 7 μL of the freshly prepared 4% DMSO serial dilution plate is added to the assay plate containing […] of MRC-5 cells plated the day before (10000 cells per well). Seventeen μL of diluted virus is added to columns 2-12 and 14-24 and only D-MEM 5% FBS medium to uninfected control (columns 1 and 13) for a final DMSO concentration of 0.6%. The virus dilution is based on the amount of virus required to obtain the highest luciferase signal possible without CPE (generally between 0.05 and 1 μL of virus stock per well or MOI=0.02). The assay plates are incubated at 37° C. with 5% CO2 for 3 days. Fifteen μL of room temperature BIGlo buffer is added to room temperature assay plates also incubated at room temperature for 15 minutes. The plates are sealed with TopSeal for biosafety and the luminescence signal is read on the TopCount plate reader (Perkin-Elmer) or equivalent.

HCMV AD169 virus [3] = assay: HCMV AD169 CPE Assay (Example A); type: cell-based; conditions: Human betaherpesvirus 5, AD169, MRC5, 216 h, MRC-5 cells, 9 days, MTS readout
Description: This assay format is a CPE (Cytopathic effect)-based assay that determines the ability of compounds to protect cells against infection with a dye reduction assay (MTS of CellTiter 96® AQueous Non-Radioactive Cell Proliferation Assay from Promega). The conversion of MTS into aqueous, soluble formazan is performed by dehydrogenase enzymes found in metabolically active cells. The quantity of formazan product determined by absorbance at 490 nm is directly proportional to the number of living cells in culture.
as §1
To perform the assay, 10 µL of the freshly prepared 4% DMSO serial dilution plate is added to the assay plate containing 40 μL of MRC-5 cells plated the day before (10000 cells per well). Twenty μL of diluted virus is added to columns 2-12 and 14-24 and only D-MEM 5% FBS medium to uninfected control (columns 1 and 13) for a final DMSO concentration of 0.6%.
The virus dilution is based on the amount of virus required to obtain a Signal-to-Background of 3-4 (generally between 0.1 and 1 μL of virus stock per well or MOI=0.05). The assay plates are incubated at 37° C. with 5% CO2 for 9 days in order to obtain 100% CPE in infected control without compound (columns 12 and 24). Ten μL of freshly mixed room temperature MTS/PMS (1:20 v/v) is added and the plates are incubated at 37° C. with 5% CO2 for 4-5 h (until signal saturation at 2.3 in the 100% CPE control). The plates are sealed with TopSeal for biosafety and read on the Envision plate reader (Perkin-Elmer) or equivalent at OD 492 nm.

SMILES | EC50 (HCMV AD169 virus [1]) [µM] | EC50 [2] [µM] | EC50 (HCMV AD169 virus [3]) [µM]
Cc1c(Cl)cccc1-c1cn(C)c(-c2ccc(NC(=O)c3cscn3)nc2)n1 [Compound 1103] | 5.8 | 1.17 | 
NC(=O)CCn1nc(-c2cccc(Cl)c2)nc1-c1ccc(NC(=O)c2cscn2)cc1 [Compound 1109] | 0.455 | 0.185 | 
CC(c1cccc(C(F)(F)F)c1)c1nc(-c2ccc(NC(=O)c3cscn3)cn2)cn1CCCO (stereo not drawn) [Compound 1111] | 0.665 | 1.26 | 
CC(O)(c1cccc(C(F)(F)F)c1)c1nc(-c2ccc(NC(=O)c3cscn3)cn2)cn1CCCO (stereo not drawn) [Compound 1113] | 2.1 | 0.62 | 
CC(O)(c1cccc(C(F)(F)F)c1)c1nc(-n2ccc(NC(=O)c3cscn3)cc2=O)c[nH]1 (stereo not drawn) [Compound 1114] | 0.596 | 0.15 | 
CC(O)(c1cccc(C(F)(F)F)c1)c1nc(-c2ccc(NC(=O)c3cscn3)cn2)cn1CCCOCc1ccccc1 (stereo not drawn) [Compound 1115] | 1.16 | 0.535 | 
CC(c1cccc(C(F)(F)F)c1)c1nc(-n2ccc(NC(=O)c3cscn3)cc2=O)c[nH]1 (stereo not drawn) [Compound 1116] | 0.16 | 0.027 | 
O=C(Nc1ccn(-c2nnc(-c3cccc(Cl)c3)[nH]2)c(=O)c1)c1cscn1 [Compound 1117] | 3.2 | 1.45 | 
CC(O)(c1cccc(C(F)(F)F)c1)c1nc(-n2ccc(NC(=O)c3cscn3)cc2=O)cn1CCCOCc1ccccc1 (stereo not drawn) [Compound 1118] | 0.97 | 0.46 | 
CC(O)(c1cccc(C(F)(F)F)c1)c1nc(-n2ccc(NC(=O)c3cscn3)cc2=O)cn1CCCO (stereo not drawn) [Compound 1119] | 2.05 | 0.77 | 
O=C(Nc1ccn(-c2cccc(Oc3cccc(Cl)c3)n2)c(=O)c1)c1cscn1 [Compound 1120] |  | 0.092 | 
O=C(Nc1ccc(-c2nc(-c3cccc(Cl)c3)nn2CC(O)CO)cc1)c1cscn1 (stereo not drawn) [Compound 1121] | 0.275 | 0.063 | 
O=C(Nc1ccn(-c2cccc(-c3cccc(Cl)c3)n2)c(=O)c1)c1cscn1 [Compound 1129] | 0.145 |  | 
CC(O)(c1cccc(C(F)(F)F)c1)c1cccc(-n2ccc(NC(=O)c3cscn3)cc2=O)n1 (stereo not drawn) [Compound 1130] | 0.375 |  | 
O=C(Nc1ccc(-c2nnc(-c3cccc(Cl)c3)[nH]2)cc1)c1csnn1 [Compound 1133] |  |  | 2.05
O=C(Nc1ccc(-c2ncc(-c3cccc(C(F)(F)F)c3)[nH]2)cc1)c1csnn1 [Compound 1139] |  | 0.111 | 0.26
O=C(Nc1ccc(-c2cnc(-c3cccc(C(F)(F)F)c3)[nH]2)cc1)c1cocn1 [Compound 1143] |  | 0.245 | 1.23
